Measured values taken from patent publication US6737383B1, “Herbicidal oxadiazolidines” (priority 1999, dated 2004).

How the values were obtained:
crabgrass = test: Test B pre/postemergence crabgrass; format: in vivo, Digitaria sanguinalis
How it was run: (§1)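 Test chemicals in a non-phytotoxic solvent mixture with surfactant were sprayed preemergence onto planted seeds and postemergence onto plants 2 to 18 cm tall (1- to 4-leaf stage). After twelve to sixteen days in a greenhouse, injury was visually rated against untreated controls from 0 (no effect) to 10 (complete control).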

corn = test: Test B pre/postemergence corn; format: in vivo, Zea mays
How it was run: as §1

sugar beet = test: Test B pre/postemergence sugar beet; format: in vivo, Beta vulgaris
How it was run: as §1

pigweed = test: Test B pre/postemergence pigweed; format: in vivo, Amaranthus retroflexus
How it was run: as §1

wild oat = test: Test B pre/postemergence wild oat; format: in vivo, Avena fatua
How it was run: as §1

blackgrass = test: Test B pre/postemergence blackgrass; format: in vivo, Alopecurus myosuroides
How it was run: as §1

wheat = test: Test B pre/postemergence wheat; format: in vivo, Triticum aestivum
How it was run: as §1

rape = test: Test B pre/postemergence rape; format: in vivo, Brassica napus
How it was run: as §1

cocklebur = test: Test B pre/postemergence cocklebur; format: in vivo, Xanthium strumarium
How it was run: as §1

soybean = test: Test B pre/postemergence soybean; format: in vivo, Glycine max
How it was run: as §1

purple nutsedge = test: Test B pre/postemergence purple nutsedge; format: in vivo, Cyperus rotundus
How it was run: as §1

velvetleaf = test: Test B pre/postemergence velvetleaf; format: in vivo, Abutilon theophrasti
How it was run: as §1

morningglory = test: Test B pre/postemergence morningglory; format: in vivo, Ipomoea hederacea
How it was run: as §1

giant foxtail = test: Test B pre/postemergence giant foxtail; format: in vivo, Setaria faberii
How it was run: as §1

surinam grass = test: Test B pre/postemergence surinam grass; format: in vivo, Brachiaria decumbens
How it was run: as §1

bedstraw = test: Test B pre/postemergence bedstraw; format: in vivo, Galium aparine
How it was run: as §1

[1] = Postemergence, Rate 62 g/ha, scale of 0 to 10, 0 is no effect, 10 is complete control
[2] = Postemergence, Rate 125 g/ha, scale 0 to 10, 0 is no effect, 10 is complete control
[3] = Postemergence, Rate 500 g/ha, scale 0 to 10, 0 is no effect, 10 is complete control
[4] = Preemergence, Rate 62 g/ha, scale 0 to 10 (0 no effect, 10 complete control)
[5] = Preemergence, Rate 125 g/ha, scale 0 to 10, 0 is no effect, 10 is complete control
[6] = Preemergence, Rate 500 g/ha, scale of 0 to 10 where 0 is no effect and 10 is complete control
[7] = Rate 250 g/ha, Postemergence, scale of 0 to 10 where 0 is no effect and 10 is complete control

CC(C)N(C(=O)n1oc(=O)n(CCCC(F)(F)F)c1=O)c1ccc(Cl)cc1 [Compound 555]
Crabgrass plant response rating (crabgrass; [1]): 0 | Crabgrass plant response rating (crabgrass; [2]): 0 | Plant response rating, Crabgrass (crabgrass; [3]): 10 | Crabgrass plant response rating (crabgrass; [4]): 9 | Crabgrass plant response rating (crabgrass; [5]): 9 | Crabgrass plant response rating (0 to 10 scale) (crabgrass; Preemergence, Rate 250 g/ha): 10 | Crabgrass plant response rating (crabgrass; [6]): 10 | Plant response rating, Crabgrass (crabgrass; [7]): 9 | Corn plant response rating (corn; [1]): 0 | Corn plant response rating (corn; [2]): 0 | Plant response rating, Corn (corn; [3]): 0 | Corn plant response rating (corn; [4]): 0 | Corn plant response rating (corn; [5]): 0 | Corn plant response rating (0 to 10 scale) (corn; Preemergence, Rate 250 g/ha): 0 | Corn plant response rating (corn; [6]): 2 | Plant response rating, Corn (corn; [7]): 0 | Sugarbeets plant response rating (sugar beet; [1]): 0 | Plant response rating, Sugarbeets (sugar beet; [3]): 0 | Sugarbeets plant response rating (sugar beet; [4]): 2 | Sugarbeets plant response rating (sugar beet; [5]): 5 | Sugarbeets plant response rating (sugar beet; [6]): 5 | Plant response rating, Sugarbeets (sugar beet; [7]): 0 | Redroot pigweed plant response rating (pigweed; [1]): 0 | Plant response rating, Redroot pigweed (pigweed; [3]): 2 | Redroot pigweed plant response rating (pigweed; [4]): 0 | Redroot pigweed plant response rating (pigweed; [5]): 0 | Redroot pigweed plant response rating (0 to 10 scale) (pigweed; Preemergence, Rate 250 g/ha): 3 | Redroot pigweed plant response rating (pigweed; [6]): 7 | Plant response rating, Redroot pigweed (pigweed; [7]): 2 | Wild oats plant response rating (wild oat; [1]): 0 | Plant response rating, Wild oats (wild oat; [3]): 2 | Wild oats plant response rating (wild oat; [4]): 0 | Wild oats plant response rating (wild oat; [5]): 0 | Wild oats plant response rating (0 to 10 scale) (wild oat; Preemergence, Rate 250 g/ha): 0 | Wild oats plant response rating (wild oat; [6]): 7 | Plant response rating, Wild oats (wild oat; [7]): 0 | Blackgrass plant response rating (blackgrass; [1]): 0 | Blackgrass plant response rating (blackgrass; [2]): 2 | Plant response rating, Blackgrass (blackgrass; [3]): 5 | Blackgrass plant response rating (blackgrass; [4]): 0 | Blackgrass plant response rating (blackgrass; [5]): 0 | Blackgrass plant response rating (0 to 10 scale) (blackgrass; Preemergence, Rate 250 g/ha): 0 | Blackgrass plant response rating (blackgrass; [6]): 8 | Plant response rating, Blackgrass (blackgrass; [7]): 2 | Wheat plant response rating (wheat; [1]): 6 | Plant response rating, Wheat (wheat; [3]): 2 | Wheat plant response rating (wheat; [4]): 0 | Wheat plant response rating (wheat; [5]): 0 | Wheat plant response rating (0 to 10 scale) (wheat; Preemergence, Rate 250 g/ha): 2 | Wheat plant response rating (wheat; [6]): 3 | Plant response rating, Wheat (wheat; [7]): 0 | Rape plant response rating (rape; [1]): 4 | Rape plant response rating (rape; [2]): 5 | Plant response rating, Rape (rape; [3]): 5 | Rape plant response rating (rape; [4]): 0 | Rape plant response rating (rape; [5]): 0 | Rape plant response rating (0 to 10 scale) (rape; Preemergence, Rate 250 g/ha): 0 | Rape plant response rating (rape; [6]): 0 | Cocklebur plant response rating (cocklebur; [1]): 0 | Cocklebur plant response rating (cocklebur; [2]): 0 | Plant response rating, Cocklebur (cocklebur; [3]): 3 | Cocklebur plant response rating (cocklebur; [4]): 0 | Cocklebur plant response rating (cocklebur; [5]): 0 | Cocklebur plant response rating (0 to 10 scale) (cocklebur; Preemergence, Rate 250 g/ha): 2 | Cocklebur plant response rating (cocklebur; [6]): 9 | Plant response rating, Cocklebur (cocklebur; [7]): 0 | Soybean plant response rating (soybean; [1]): 1 | Plant response rating, Soybean (soybean; [3]): 2 | Soybean plant response rating (soybean; [4]): 0 | Soybean plant response rating (soybean; [5]): 0 | Soybean plant response rating (0 to 10 scale) (soybean; Preemergence, Rate 250 g/ha): 0 | Soybean plant response rating (soybean; [6]): 2 | Plant response rating, Soybean (soybean; [7]): 2 | Nutsedge plant response rating (purple nutsedge; [1]): 0 | Nutsedge plant response rating (purple nutsedge; [2]): 0 | Plant response rating, Nutsedge (purple nutsedge; [3]): 0 | Nutsedge plant response rating (purple nutsedge; [4]): 0 | Nutsedge plant response rating (purple nutsedge; [5]): 0 | Nutsedge plant response rating (0 to 10 scale) (purple nutsedge; Preemergence, Rate 250 g/ha): 0 | Nutsedge plant response rating (purple nutsedge; [6]): 0 | Plant response rating, Nutsedge (purple nutsedge; [7]): 0 | Velvetleaf plant response rating (velvetleaf; [1]): 0 | Plant response rating, Velvetleaf (velvetleaf; [3]): 4 | Velvetleaf plant response rating (velvetleaf; [4]): 0 | Velvetleaf plant response rating (velvetleaf; [5]): 0 | Velvetleaf plant response rating (0 to 10 scale) (velvetleaf; Preemergence, Rate 250 g/ha): 0 | Velvetleaf plant response rating (velvetleaf; [6]): 6 | Plant response rating, Velvetleaf (velvetleaf; [7]): 2 | Morningglory plant response rating (morningglory; [1]): 1 | Morningglory plant response rating (morningglory; [2]): 2 | Plant response rating, Morningglory (morningglory; [3]): 6 | Morningglory plant response rating (morningglory; [4]): 0 | Morningglory plant response rating (morningglory; [5]): 0 | Morningglory plant response rating (0 to 10 scale) (morningglory; Preemergence, Rate 250 g/ha): 0 | Morningglory plant response rating (morningglory; [6]): 0 | Plant response rating, Morningglory (morningglory; [7]): 5 | Giant foxtail plant response rating (giant foxtail; [1]): 0 | Giant foxtail plant response rating (giant foxtail; [2]): 0 | Plant response rating, Giant foxtail (giant foxtail; [3]): 8 | Giant foxtail plant response rating (giant foxtail; [4]): 9 | Giant foxtail plant response rating (giant foxtail; [5]): 10 | Giant foxtail plant response rating (0 to 10 scale) (giant foxtail; Preemergence, Rate 250 g/ha): 10 | Giant foxtail plant response rating (giant foxtail; [6]): 10 | Plant response rating, Giant foxtail (giant foxtail; [7]): 8 | B. signalgrass plant response rating (surinam grass; [1]): 0 | B. signalgrass plant response rating (surinam grass; [2]): 0 | Plant response rating, B. signalgrass (surinam grass; [3]): 4 | B. signalgrass plant response rating (surinam grass; [4]): 6 | B. signalgrass plant response rating (surinam grass; [6]): 8 | Plant response rating, B. signalgrass (surinam grass; [7]): 0 | Bedstraw plant response rating (bedstraw; [1]): 2 | Bedstraw plant response rating (bedstraw; [2]): 9 | Bedstraw plant response rating (bedstraw; [4]): 0 | Bedstraw plant response rating (bedstraw; [5]): 0 | Bedstraw plant response rating (0 to 10 scale) (bedstraw; Preemergence, Rate 250 g/ha): 0 | Bedstraw plant response rating (bedstraw; [6]): 0 | Plant response rating, Bedstraw (bedstraw; [7]): 9
